# Results as given in article PMC9365693 (Nature, 2022).
# Where “and” joins values, the source holds several entries; their conditions need not be identical. Equal entries are not always repeated. Entries after “also recorded” stand apart in the source; their conditions may differ. Where two headings read alike, the source gives them in different places.
# Tests used:
# [1] = HS-AFM control experiments (membrane height; bilayers without lipid II); design: membrane height: unit not given here; details: for membrane height: source data Ext. Data Fig. 6, DOPC + 1% lipid II, after 30 mins incubation with 800 nM
# Experimental: (§1) The HS-AFM images were acquired in amplitude modulation tapping mode in liquid using a high-speed atomic force microscope (RIBM). Short cantilevers (approximately 7 μm) with a nominal spring constant of 0.15 N m^−1 were used (USC-F1.2-k0.15, NanoWorld). A minimal imaging force was applied by using a small set-point amplitude of 0.8 nm (for a 1 nm free amplitude). […] The lipid bilayer was obtained by incubating LUVs containing DOPC and lipid II (prepared as mentioned above) on top of a freshly cleaved mica for 20–30 min. […] Imaging was started on the lipid bilayer surface in recording buffer. […] Images were primarily processed using built-in scripts (RIBM) in Igor Pro (Wavemetrics) and analysed using ImageJ software. The images or videos were corrected minimally for tilt, drift and contrast. […] Image acquisition rate varies from 0.5 frames per second to 2 frames per seconds (see Fig. 2, Extended Data Figs. 5, 6, or legends of Supplementary Videos 1 and 2), and the line rate varies from 150 lines per second to 400 lines per second. […] Stated errors are standard deviation.
# Extended Data Fig. 6 HS-AFM control experiments. […] Source data
# S. simulans = experiment: MIC, S. simulans (given with permeabilization assay concentrations); assay type: cell-based; details: S. simulans
# Staphylococcus simulans = experiment: DiSC membrane depolarization (ion leakage) assay, S. simulans; assay type: cell-based; details: DiSC-2 probe, Gram-positive bacteria (Fig. 4h and Extended Data Fig. 10b,c), 20 °C, pH 7.2, 2 min before and 6 min after antibiotic; triplicates
# Experimental: The bacterial cultures were grown overnight at 30 °C in TSB media for S. simulans and at 37 °C in LB medium for Bacillus subtilis. Secondary cultures were grown for 3 h until OD600 = 0.5 was reached. The bacterial cells were then centrifuged at 1,500g for 10 min at 4 °C and washed twice with 10 ml of buffer (10 mM Tris, 100 mM NaCl, 1 mM MgCl2 and 0.5% glucose, pH 7.2). The bacterial cells were resuspended to an OD600 = 10 in the buffer and used for the experiment. […] For the assay, 1 μl of the bacterial suspension was added to 1 ml of buffer. For the ion leakage assays, 1 μl of the DiSC-2 probe from a 1 mM stock was added to the cuvette and the fluorescence was measured between a wavelength of 650 nm and 670 nm (bandwidth of […]) for 2 min before the addition of the antibiotic and 6 min after. For the Sytox green leakage assays, 1 μl of the Sytox green probe from a 0.25 mM stock was added to the cuvette and the fluorescence was measured between a wavelength of 500 nm and 520 nm (bandwidth of […]) for 2 min before the addition of the antibiotic and 6 min after. All experiments were performed in triplicates.
# [2] = for interaction with lipid II moieties (in words): ssNMR, DOPC liposomes with 4 mol% lysine-lipid II, pH 7.2
# Experimental: Multi-lamellar vesicles of DOPC doped with 4 mol% lysine-lipid II in buffer (40 mM Na2PO4 and 25 mM NaCl, pH 7.2) were collected by centrifugation (60,000g) and loaded into ssNMR rotors. […] For 1.3-mm rotors, samples contained 200 nmol of antibiotic for unlabelled lipid II.
# ^1H-detected ssNMR experiments were performed at 60 kHz magic angle spinning (MAS) using magnetic fields of 700 and 950 MHz (^1H frequency). […] T1rho trajectories were fit to single exponentials. 2D CC experiments were acquired with PARISxy[33],[53] recoupling (m = 1) at 950 MHz magnetic field and 18 kHz MAS. A 2D CαN experiment was acquired at 700 MHz, 12 kHz MAS and 5 ms N to C cross-polarization transfer time. […] The scalar TOBSY[35] experiment was acquired at 700 MHz using 8 kHz MAS with 6 ms CC mixing time. The mobility edited H(H)C experiment[25] was measured at 700 MHz with 16.5 kHz MAS at a temperature of 300 K using a T2 relaxation filter of 2.5 ms. 1D MAS ^31P experiments were acquired at 500 MHz magnetic field and 12 kHz MAS. 2D HP experiments were acquired at 800 MHz and 60 kHz MAS using 1 and 2 ms ^1H to ^31P cross-polarization contact time. Static ^31P ssNMR experiments were acquired at 500 MHz magnetic field without sample spinning.
# [3] = Scalar TOBSY ssNMR: mobility of the lipid II pentapeptide in the complex; assay type: binding; details: 8 kHz MAS, 300 K, compared with R4L10-teixobactin
# From the text: (§2) T1rho trajectories were fit to single exponentials.
# Interfacial contacts are labelled in green. Lipid II pentapeptide signals are marked with an asterisk, e.g., A1*αβ. b) Zoom into the spectrum acquired with 300 ms magnetization transfer. […] The spectrum is based on a scalar 2D ^13C^13C TOBSY[35] ssNMR experiment with the complex formed by ^13C,^15N-teixobactin and ^13C,^15N-Lipid II in liposomes acquired at 950 MHz, 8 kHz MAS, and 300 K temperature. Teixobactin and the Lipid II sugars are not visible in the spectrum (cyan). Conversely, the last three residues (Lys3-Ala4-Ala5) of the Lipid II pentapeptide give scalar signals indicating high mobility and no involvement in complex formation. […] Likewise, the K3αγ signal of the third pentapeptide residue was only visible for R4L10-teixobactin. […] All experiments were performed in triplicates. All the parameter values are shown as mean +/− SD.
# [4] = Intermolecular teixobactin–teixobactin ssNMR contacts (2D 13C13C); details: 2D 13C13C ssNMR, 600 ms transfer, lipid II-bound
# From the text: as §2
# Solid-state NMR ^13C-^13C PARISxy spectra of the ^13C,^15N-teixobactin – Lipid II complex in membranes show several cross-peaks (in red) that cannot be intramolecular contacts because this would require magnetization transfer over more than 10 Å. Rather, these cross-peaks correspond to intermolecular contacts between different teixobactin molecules and agree with the formation of antiparallel β-sheets.
# [5] = HS-AFM of teixobactin–lipid II fibrils on supported lipid bilayer
# Experimental: as §1
# [6] = Pyrene-labelled lipid II excimer fluorescence (oligomerization); details: DOPC LUVs with 0.5 mol% pyrene-lipid II, 10 mM Tris-Cl 100 mM NaCl pH 8.0, 20 °C
# [7] = Isothermal titration calorimetry (ITC), lipid II-containing LUVs titrated into drug; assay type: binding; design: dG / dH / -TdS: unit not given here
# Experimental: Isothermal titration calorimetry
# For isothermal titration calorimetry (ITC) measurements large unilamellar vesicles (LUVs) containing lysine-lipid II were prepared by incorporating 2 mol% of lysine-lipid II in DOPC from the stock solution. The lipids were dried under a nitrogen stream and hydrated with buffer (20 mM HEPES and 50 mM NaCl, pH 7) to a lipid-phosphate concentration of 20 mM. Finally, unilamellar vesicles were obtained after ten rounds of extrusion through 200-nm membrane filters (Whatman Nuclepore, Track-Etch Membranes). ITC experiments were performed with the Affinity ITC (TA Instruments-Waters LLC) to determine interaction between LUVs and teixobactin. […] The samples were degassed before use. […] The number of injections was 23. Experiments were performed at 37 °C and analysed using the Nano Analyze Software (TA instruments-Water LLC). All experiments were performed in triplicates. Control experiments were performed with lipid II-free DOPC LUVs. The independent model was used to determine the interaction between teixobactin and lipid II. ITC data of R4L10-teixobactin were previously published.
# [8] = Static 31P ssNMR: membrane perturbation; details: lipid II-doped DOPC large unilamellar vesicles
# [9] = source data Figure 3e, ITC, Avg of Expt 1-3
# [10] = source data Figure 3e, ITC, Expt 1
# [11] = source data Figure 3e, ITC, Expt 2
# [12] = source data Figure 3e, ITC, Expt 3
substance,measurement,setting,value
teixobactin,HS-AFM control result (in words),"[1]; membrane height at positions without fibrils, 30 min after teixobactin",membrane height at positions without fibrils remains unaltered
same,membrane height,"[1]; individual measurement, one line each",4.81 and 4.99 and 5.22 and 4.65 and 4.79 and 5.05 and 5.1 and 4.77 and 4.67 and 5.01 and 4.5 and 4.97 and 4.95 and 5 and 4.87 and 4.68 and 4.96 and 4.63 and 4.88 and 4.89 and 4.9 and 5.12 and 4.8
same,membrane height,[1]; mean,4.873
same,concentration stated as 1× MIC,S. simulans,0.5 µM
same,decrease in membrane potential / depolarization (in words),Staphylococcus simulans,sharp decrease in the membrane potential
same,number of interfacial End10–MurNAc ssNMR contacts,"[2]; 2D 13C13C PARISxy, 13C,15N-teixobactin and 13C,15N-lipid II in DOPC liposomes",11
same,interaction with lipid II moieties (in words),[2]; listed as Teixobactin,did not bind to the pentapeptide of lipid II
same,interaction with lipid II moieties (in words),[2]; listed as natural teixobactin,tight and specific interactions
same,rigidity of lipid II pentapeptide in the complex (in words),[3],the pentapeptide is more rigid in the complex with teixobactin than with R4L10-teixobactin
same,antiparallel β-sheet formation (in words),[4],strongly supports that natural teixobactin also forms antiparallel β-sheets
same,depth of fibrillar sheets below the membrane surface (membrane thinning),[5]; 50 min after 800 nM teixobactin,approximately 0.5 nm
same,height of fibrils on the membrane surface,"[5]; DOPC bilayer with lipid II, 10 mM Tris-Cl 100 mM NaCl pH 8.0, error is standard deviation",0.8 ± 0.1 nm
same,peak-to-peak distance between fibrils in sheets,[5]; after the fibrils have descended into the surface,~ 8 nm
same,formation of fibrils (in words),[5]; lipid II-doped bilayer,Fibrils were solely observed in the presence of both teixobactin and lipid II; also recorded: fibrils solely form in the presence of both teixobactin and Lipid II
same,oligomerization by pyrene-tagged lipid II (in words),[6],with the increase in teixobactin concentration there is a relative decrease in the monomer signal followed by a respective increase in the excimer signal; also recorded: oligomers form immediately after the addition of teixobactin
same,Kd,"[7]; ITC, DOPC LUVs with 2 mol% lysine-lipid II, 20 mM HEPES 50 mM NaCl pH 7, 30 μM drug, 37 °C, mean of three experiments, b18 prints ± 0.008",80 nM
same,Kd,"[7]; source data Figure 3e, ITC pH 7, 37 °C, Expt 1",67.4 nM
same,Kd,"[7]; source data Figure 3e, ITC pH 7, 37 °C, Expt 2",92 nM
same,Kd,"[7]; source data Figure 3e, ITC pH 7, 37 °C, Expt 3",68.9 nM
same,dG,[7]; [9],-42.29
same,dH,[7]; [9],-35.03
same,dG,[7]; [10],-42.58
same,dH,[7]; [10],-34.03
same,dG,[7]; [11],-41.78
same,dH,[7]; [11],-37.92
same,dG,[7]; [12],-42.52
same,dH,[7]; [12],-33.14
same,-TdS,"[7]; source data Figure 3e, ITC, Plot, avg",-7.26
same,membrane perturbation by static 31P ssNMR (in words),[8],incubation with teixobactin markedly changed the signal
